Series [1] has as its system cervical carcinoma cell line HeLa. Nature of the series: Calcein AM cytotoxicity assay, HeLa. In kind it is cell-based. The settings on record: 72 h, means ± SD, three independent experiments in triplicate. The method, then: (§1) Stock solutions (10 mmol/l) of the tested compounds were prepared by dissolving relevant quantity of the substance in DMSO. […] Calcein AM was obtained from Molecular Probes (Invitrogen Corporation, CA, USA).
(§2) All cell lines were cultured in DMEM medium (Sigma, Mo., USA). Medium was supplemented with 10% heat-inactivated fetal bovine serum, 2 mmol/l L-glutamine and 1% penicillin-streptomycin. The cell lines were maintained under standard cell culture conditions at 37° C. and 5% CO2 in a humid environment. Cells were subcultured twice or three times a week using the standard trypsinization procedure.
(§3) All cell lines were cultured in DMEM medium (Sigma, Mo., USA) supplemented with 10% fetal calf serum, 2 mM glutamine, 100 U/ml penicillin and 100 μg/ml streptomycin, at 37° C. in a fully humidified atmosphere containing 5% CO2. Suspensions of these lines (ca. 1.0×10^5 cells/ml) were placed in 96-well microtitre plates and after 3 h of stabilization the tested compounds were added in serially diluted concentrations. Saponins were dissolved in dimethylsulfoxide (DMSO) before addition to cultures. Control cultures were treated with DMSO alone. The final concentration of DMSO in the reaction mixtures never exceeded 0.6%. Four-fold dilutions of the intended test concentration were added at time zero in 20 μl aliquots to the microtitre plate wells. Usually, each test compound was evaluated at six 4-fold dilutions and in routine testing; the highest well concentration was 50 μM, although this varied in a few cases, depending on the test compound. After 72 h of culture, the cells were incubated with Calcein AM solution (Molecular Probes) for 1 h. The fluorescence of viable cells was quantified using a Fluoroscan Ascent instrument (Microsystems).

The next series concerns P388. To be noted: mice bearing P388, single administration of 0.01 mg/kg; cited from earlier work.
The test system of series [2] is human leukemia and pancreatic cancer cells. To be noted: cited from earlier work.
Series [3] relates to lung carcinoma cell line A549. In words: Calcein AM cytotoxicity assay, A549. To be noted: 72 h, means ± SD, three independent experiments in triplicate, read-out: IC50, A 549. The class given is cell-based, human. The method, then: as §1, §2, §3
Series [4] relates to malignant melanoma cell line G-361. In words: Calcein AM cytotoxicity assay, G-361. In kind it is cell-based, human. The settings on record: 72 h, means ± SD, three independent experiments in triplicate. The method, then: as §1, §2, §3
Series [5] has as its system osteosarcoma cell line HOS. In words: Calcein AM cytotoxicity assay, HOS. In kind it is cell-based, human. To be noted: 72 h, means ± SD, three independent experiments in triplicate. The method, then: (§4) Stock solutions (10 mmol/l) of the tested compounds were prepared by dissolving relevant quantity of the substance in DMSO. Dulbecco's modified Eagle's medium (DMEM, RPMI 1640, F-12 medium), fetal bovine serum (FBS), L-glutamine, penicillin, streptomycin were purchased from Sigma (MO, USA). Calcein AM was obtained from Molecular Probes (Invitrogen Corporation, CA, USA).
(§5) The screening cell lines (T-lymphoblastic leukaemia cell line CEM, breast carcinoma cell line MCF-7, cervical carcinoma cell line HeLa, human glioblastoma cell line T98, human malignant melanoma G-361, human osteogenic sarcoma cell line HOS, carcinomic human alveolar basal epithelial cells A549, human colon carcinoma cells HCT 116 and human fibroblasts BJ) were obtained from the American Type Culture Collection (Manassas, Va., USA). All cell lines were cultured in DMEM medium (Sigma, Mo., USA). Medium was supplemented with 10% heat-inactivated fetal bovine serum, 2 mmol/l L-glutamine and 1% penicillin-streptomycin. The cell lines were maintained under standard cell culture conditions at 37° C. and 5% CO2 in a humid environment. Cells were subcultured twice or three times a week using the standard trypsinization procedure.
(§6) Cytotoxic activities of the novel compounds, obtained according to this invention, were tested in vitro against following cancer cell lines: T-lymphoblastic leukemia cell line CEM; breast carcinoma cell line MCF7, lung carcinoma cell line A549, cervical carcinoma cell line HeLa, malignant melanoma cell line G-361, osteosarcoma cell line HOS, human glioblastoma cell line T98, human colon carcinoma cells HCT 116 and normal human fibroblasts BJ. […] Usually, each test compound was evaluated at six 4-fold dilutions and in routine testing; the highest well concentration was 50 μM, although this varied in a few cases, depending on the test compound. […] The fluorescence of viable cells was quantified using a Fluoroscan Ascent instrument (Microsystems). […]

The test system of series [6] is human glioblastoma cell line T98. In words: Calcein AM cytotoxicity assay, T98. The class given is cell-based. To be noted: 72 h, means ± SD, three independent experiments in triplicate. The method, then: as §4, §5
as §3, with “Cytotoxic activities of the novel compounds, obtained according to this invention, were tested in vitro against following cancer cell lines: T-lymphoblastic leukemia cell line CEM; breast carcinoma cell line MCF7, lung carcinoma cell line A549, cervical carcinoma cell line HeLa, malignant melanoma cell line G-361, osteosarcoma cell line HOS, human glioblastoma cell line T98, human colon carcinoma cells HCT 116 and normal human fibroblasts BJ. All” for “All”, “(Microsystems). The percentage of surviving cells in each well was calculated from the equation […]=(ODdrug exposed well/mean ODcontrol wells)×100%. The IC50 value, the drug concentration lethal to 50% of the tumour cells, was calculated from the obtained dose-response curves.” for “(Microsystems).”

Series [7] relates to normal human fibroblasts BJ. In words: Calcein AM cytotoxicity assay, normal fibroblasts BJ. The class given is cell-based. The settings on record: 72 h, means ± SD, three independent experiments in triplicate. The method, then:
as §1, §2, §3

Series [8] has as its system leukemia HL-60 cancer cells. To be noted: cited from earlier work.
In series [9] the test system is breast carcinoma cell line MCF7. In words: Calcein AM cytotoxicity assay, MCF7. In kind it is cell-based, human. The settings on record: for IC50: Calcein AM assay, 72 h, means ± SD, three independent experiments in triplicate; for dose-dependent antiproliferative activity, number of viable cells (FIG. 1): MCF7, 72 h, increasing concentrations, Calcein AM. The method, then: as §1, §2, §3

For series [10], the system named is T-lymphoblastic leukemia cell line CEM. Nature of the series: Calcein AM cytotoxicity assay, CEM. To be noted: 72 h; for IC50: Calcein AM assay, means ± SD, three independent experiments in triplicate; for dose-dependent antiproliferative activity, number of viable cells (FIG. 1): CEM, increasing concentrations, Calcein AM. The class given is cell-based. The method, then:
as §1, §2, §3

The subject of series [11] is human colon carcinoma cells HCT 116. In words: Calcein AM cytotoxicity assay, HCT 116. The class given is cell-based. To be noted: 72 h, means ± SD, three independent experiments in triplicate, read-out: IC50, HCT116. The method, then: as §4, §5, §6

Usually IC50 stands for the point on the concentration scale where inhibition reaches its midpoint.

Turning to `COc1ccc(C(=O)O[C@H]2[C@H](O[C@@H]3[C@@H](OC(C)=O)[C@H](O[C@H]4C[C@H]5[C@@H]6CC=C7C[C@@H](O)CC[C@]7(C)[C@H]6CC[C@]5(C)[C@@]4(O)[C@H](C)C(=O)CCC(C)C)OC[C@@H]3O)OC[C@@H](O)[C@@H]2O)cc1` [OSW-1, reference compound], the IC50 in [1] is 3.4 ± 0.3 nM; in series [3], 27 ± 3 nM; in series [4], 1000 ± 100 nM; in [5], 8200 ± 400 nM; in [6], 70 ± 6 nM; in series [7], 0.2 nM. In addition, the IC50 is 54.4 ± 0.2 nM in series [9], 3 ± 0.03 nM in [10] and 8400 ± 500 nM in series [11]. For the same compound, in the series on P388, the “prolongation of life span” value is 59%. For the same compound, the effect on mitochondria result in series [2] is “damaged the mitochondrial membrane and cristae”. The “cytotoxicity relative to clinically applied anticancer agents (mitomycin C, adriamycin, cisplatin, camptothecin, taxol)” value in series [8] (HL-60) is listed as 10-100 times. For the same compound, in series [8] (NCI tests), the “cytotoxic activity, HL-60” value is “nanomolar concentrations”.

For the compound `CCCCCCCCCCCCCCCCCC(=O)OC[C@@H](C)[C@@]1(O)[C@@H](O[C@@H]2OC[C@H](O)[C@H](O[C@@H]3OC[C@@H](O)[C@H](O)[C@H]3OC(=O)c3ccc(OC)cc3)[C@H]2OC(C)=O)C[C@H]2[C@@H]3CC=C4C[C@@H](O)CC[C@]4(C)[C@H]3CC[C@@]21C` [Compound 10, (20R)-21-O-Octadecanoyl-20-methylpregn-5-ene-3β,16β,17α,21-tetraol 16-O-{2-O-(4-methoxybenzoyl)-β-D-xylopyranosyl-(1→3)-2′-O-acetyl-α-L-arabinopyranoside}], the half-maximal inhibitory concentration (IC50) was 435 ± 64 nM in [1]; 550 ± 180 nM in series [3]; 300 ± 100 nM in series [4]; 210 ± 50 nM in series [6]; 80 ± 4 nM in [7]; 195 ± 21 nM in [9]. Further, in series [10], the IC50 is 58 ± 1 nM. In addition, the “dose-dependent antiproliferative activity, number of viable cells (FIG. 1)” value in [9] and in [10] was “significantly reduce the number of living cells” throughout.

As to `CCCCCCCCCCCCCC(=O)OC[C@@H](C)[C@@]1(O)[C@@H](O[C@@H]2OC[C@H](O)[C@H](O[C@@H]3OC[C@@H](O)[C@H](O)[C@H]3OC(=O)c3ccc(OC)cc3)[C@H]2OC(C)=O)C[C@H]2[C@@H]3CC=C4C[C@@H](O)CC[C@]4(C)[C@H]3CC[C@@]21C` [Compound 9, (20R)-21-O-tetradecanoyl-20-methylpregn-5-ene-3β,16β,17α,21-tetraol 16-O-{2-O-(4-methoxybenzoyl)β-D-xylopyranosyl-(1-43)-2′-O-acetyl-α-L-arabinopyranoside}], the half-inhibitory concentration (IC50) in series [1] was 67 ± 2 nM; in [3] it was 720 ± 70 nM; in series [4], 30 ± 10 nM; in series [5], 2700 ± 600 nM; in series [6] it was 28 ± 1 nM; in [7] it was 83 ± 5 nM. The IC50 in series [9] was 48 ± 22 nM; in [10] it was 16 ± 5 nM; in [11], 2800 ± 400 nM. Further, the “dose-dependent antiproliferative activity, number of viable cells (FIG. 1)” value in series [9] and in series [10] was “significantly reduce the number of living cells” each time.

As for `CC(C)CCC(=O)[C@@H](C)[C@@]1(O)[C@@H](O)C[C@H]2[C@@H]3CC=C4C[C@@H](O)CC[C@]4(C)[C@H]3CC[C@@]21C` [OSW-1 aglycone, reference compound], the IC50 in series [1], in [3], in series [4], in [5], in series [6] and in series [7] was > 50000 nM each time. For the same compound, the 50% inhibitory concentration (IC50) in series [9], in series [10] and in [11] was > 50000 nM each time.

The record behind these values is US8552161B2, “Saponin compounds, methods of preparation thereof, use thereof and pharmaceutical compositions” (Uniwersytet W Bialymstoku, priority 2009, dated 2013).
